# Residues, ends and D or L forms follow the SMILES beside them.
# Tests used:
# [1] = Plasma protein binding, ultrafiltration; format: in vitro ADME; details: 100% human plasma, read-out: PPB (%) (converted)
# Procedure: Plasma protein binding was performed using an ultrafiltration method.[58]
# Plasma protein binding assay
# Plasma protein binding was performed using an Ultrafiltration method.13 Fresh frozen human plasma was pooled from O Negative (Product number 1274512) blood from the R & D division of the Australian Red Cross Blood Services (Brisbane). Stock solutions (20 mg/mL) of the test compounds were prepared in H2O. Test compounds (40 µg/mL) were incubated in 100 % human plasma at 37 °C for 30 min (1 mL volume). For unfiltered samples, an aliquot (50 µL) was removed, diluted with PBS (50 µL) and quenched with icePcold precipitating solution comprising 0.5 µM carbutamide MS internal standard in acetonitrile : methanol : formic acid (1: 1 : 0.001). Samples were incubated at 4 °C for 30 min then centrifuged at 14000 × g for 8 min, with the clear supernatant transferred to a vial for LC/MS/MS analysis.
# For filtered samples, the plasma sample (250 µL) was filtered using Amicon UltraP0.5 Centrifugal Filter Devices 30K NMWL at 14000 × g for 7 min and then an aliquot (50 µL) was processed as described for unfiltered samples. The fraction of unbound compound was calculated by determining the concentration of the filtered sample and the concentration of unfiltered sample. All samples were performed in triplicate with sulfamethoxazole as a […]
# [2] = hemolysis (%) at 300 μg/mL, human erythrocytes, 3 h, relative to 100% hemolysis by 1% Triton X-100
# [3] = test system: S. aureus ATCC 43300 (MRSA); experiment: microbe, parasite or virus in culture; format: cell-based, Staphylococcus aureus; details: S. aureus ATCC 43300 (MRSA); n = 4
# Procedure: (§1) Both antibacterial and antifungal MIC assays were performed by a broth microdilution plate based method as per CLSI guidelines for antimicrobial susceptibility testing.[53],[54] […] Full assay details are included in the Supporting Information with a full list of strains tested in Table S1.
# (§2) Antibacterial assay (Minimum Inhibitory Concentration [MIC]).
# (§3) MIC assay was performed by a broth microdilution plate based method as per CLSI guidelines for antimicrobial susceptibility testing of aerobic bacteria.1 Compounds were prepared at 1.28 mg/mL solution in water. The tested strains, Table S1, were cultured in Luria broth (LB) (In Vitro Technologies, USB75852), at 37 °C overnight. A sample of culture was then diluted 40Pfold in fresh Muller Hinton broth (MHB) (Bacto laboratories, 211443) and incubated at 37 °C for 1.5P2 h. The compounds were serially diluted twoPfold across the wells, with compound concentrations ranging from 0.015 µg/mL to 512 µg/mL, plated in duplicate. The resultant midPlog phase cultures were diluted to the final concentration of 1×10^6 CFU/mL, then 50 µL was added to each well of the compoundP containing 96Pwell plates (Corning 3641, NonPbinding Surface [NBS]), giving a final compound concentration range of 0.008 µg/mL to 256 µg/mL and 5x10^5 CFU/mL. All the plates were covered and incubated at 37 °C for 18 h. MICs were determined visually, being defined as the lowest concentration showing no visible growth. Resazurin was added at 0.001% final concentration to each well and incubated for 2 h before MICs were rePread for confirmation using the colour change from blue to pink to indicate wells containing viable cells. The resazurin assay was added in some wells where some form of precipitate was present in otherwise clear wells, making it difficult to ascertain which wells had visible […]
# (§4) Antifungal assay (Minimum Inhibitory Concentration [MIC]). MIC assay was performed by a broth microdilution plate based method as per CLSI guidelines for antimicrobial susceptibility testing.2 Fungi strains, Table S1, were cultured for 3 days on Yeast ExtractPPeptone Dextrose (YPD) (SigmaPAldrich, Y1500) agar at 30 °C. A yeast suspension of 1x10^6 to 5x10^6 CFU/mL was prepared from five colonies. These stock suspensions were diluted with Yeast Nitrogen Base (YNB) (Becton Dickinson, 233520) broth to a final concentration of 2.5 ×10^3 CFU/mL. All samples, compounds and standards were plated in 96Pwell plates (Corning 3641, NonPbinding Surface [NBS]), by adding 10 µL of 1.28 mg/mL stock solution to each well and 90 µL of media. Then, the samples were serial diluted (1:2) in 12 concentrations across the plate. The standard antifungal ranged from 256
# B. subtilis ATCC 6051 = experiment: microbe, parasite or virus in culture; format: cell-based, Bacillus subtilis; details: ATCC 6051
# Procedure: as §1, §2, §3, §4
# C. albicans ATCC 90028 = experiment: microbe, parasite or virus in culture; format: cell-based, Candida albicans
# Procedure: as §1, §2, §3
# as §4, with “256 […]” for “256”
# µg/mL to 0.12 µg/mL and compounds from 128 µg/mL to 0.06 µg/mL with final volumes of 50 µL per well, plated in duplicate. Then, 50 µL of the fungi suspension that was previously prepared in YNB broth to the final concentration of 2.5×10^3 CFU/mL, was added to each well of the compoundPcontaining plates, giving a final standard compound concentration range of 128 µg/mL to 0.06 µg/mL and tested compound from 64 µg/mL to 0.03 µg/mL. Plates were covered and incubated at 35 °C for 24 h. Candida albicans MICs were determined by measuring the absorbance at OD530. For Cryptococcus neoformans 10 µL of 0.06 % resazurin were added to the 24 h incubated plates. Then, these plates were incubated for another 3 h.
# Cryptococcus neoformans MICs were determined by measuring the absorbance at OD570P600. […]
# A. baumannii ATCC 19606 = format: cell-based, Acinetobacter baumannii; details: ATCC 19606
# Procedure: as §1, §2, §3, §4
Compound,fraction unbound [1],hemolysis [2] [%],MIC [3] [µg/mL],MIC (B. subtilis ATCC 6051) [µg/mL],"MIC (C. albicans ATCC 90028; C. albicans ATCC 90028, n = 4) [µg/mL]",MIC (A. baumannii ATCC 19606) [µg/mL],MIC (C. albicans ATCC 90028; ATCC 90028) [µg/mL]
CC[C@H](C)[C@H](NC(=O)[C@@H](NC(=O)[C@@H]1CCCN1C(=O)[C@@H](NC(=O)[C@@H]1CCCN1C(=O)[C@H](CCCCN)NC(=O)[C@H](CCCCN)NC(=O)[C@H](CO)NC(=O)CN)C(C)C)[C@@H](C)CC)C(=O)N[C@@H](Cc1ccc(O)cc1)C(=O)N[C@H]1CSSC[C@@H](C(=O)N[C@@H](CCC(N)=O)C(=O)N[C@@H](CCCNC(=N)N)C(=O)N[C@@H](CCSC)C(N)=O)NC(=O)[C@H](CCCCN)NC(=O)CNC(=O)[C@H]([C@@H](C)O)NC(=O)[C@H](CCCNC(=N)N)NC(=O)[C@H](CCCNC(=N)N)NC(=O)[C@H](CC(N)=O)NC1=O [thanatin],0.08,1.3 ± 0.4,256,128,64,>256,–
"CC(C)[C@@H]1NC(=O)[C@H](CCCNC(=N)N)NC(=O)[C@H](Cc2ccccc2)NC(=O)[C@@H](NC(=O)[C@H](Cc2c[nH]c3ccccc23)NC(=O)[C@H](CCCNC(=N)N)NC(=O)[C@@H](N)CCCNC(=N)N)CSSC[C@@H](C(=O)N[C@@H](CCCNC(=N)N)C(N)=O)NC(=O)[C@H](CCCCN)NC(=O)[C@H](CCCNC(=N)N)NC(=O)[C@H](Cc2ccc(O)cc2)NC(=O)[C@@H]2CSSC[C@H](NC1=O)C(=O)N[C@@H](Cc1ccc(O)cc1)C(=O)N[C@@H](CCCNC(=N)N)C(=O)NCC(=O)N[C@@H](Cc1ccccc1)C(=O)N2 [polyphemusin-1] (HELM PEPTIDE1{R.R.W.C.F.R.V.C.Y.R.G.F.C.Y.R.K.C.R.[am]}$PEPTIDE1,PEPTIDE1,4:R3-17:R3|PEPTIDE1,PEPTIDE1,8:R3-13:R3$$$V2.0)",0.37,~30,2,0.25,–,0.06,1
"[H][C@]12CSSC[C@]([H])(NC(=O)[C@]([H])([C@@H](C)CC)NC(=O)CNC(=O)[C@H](CCCNC(=N)N)NC(=O)[C@H](Cc3ccc(O)cc3)NC1=O)C(=O)N[C@@H](Cc1ccc(O)cc1)C(=O)N[C@@H](CCCNC(=N)N)C(=O)N[C@@H](CCCNC(=N)N)C(=O)N[C@H](C(=O)N[C@@H](CCCNC(=N)N)C(N)=O)CSSC[C@H](NC(=O)[C@H](Cc1c[nH]c3ccccc13)NC(=O)[C@@H](N)CCCCN)C(=O)N[C@@H](Cc1ccccc1)C(=O)N[C@@H](CCCNC(=N)N)C(=O)N[C@@H](C(C)C)C(=O)N2 [tachyplesin-1] (HELM PEPTIDE1{K.W.C.F.R.V.C.Y.R.G.I.C.Y.R.R.C.R.[am]}$PEPTIDE1,PEPTIDE1,3:R3-16:R3|PEPTIDE1,PEPTIDE1,7:R3-12:R3$$$V2.0)",0.24,~30,1,0.125,–,0.125,4
"CC(C)[C@@H]1NC(=O)CNC(=O)[C@H](CC(N)=O)NC(=O)[C@H](CCCNC(=N)N)NC(=O)[C@H](Cc2ccc(O)cc2)NC(=O)[C@H](C(C)C)NC(=O)[C@@H]2CSSC[C@H](NC(=O)[C@H](C(C)C)NC(=O)[C@H](CCCNC(=N)N)NC1=O)C(=O)N[C@@H](Cc1ccc(O)cc1)C(=O)N[C@@H](CCCNC(=N)N)C(=O)N[C@@H](CCCNC(=N)N)C(=O)N[C@H](C(=O)N[C@@H](CC(N)=O)C(=O)O)CSSC[C@H](NC(=O)[C@H](Cc1ccccc1)NC(=O)CN)C(=O)N[C@@H](Cc1c[nH]c3ccccc13)C(=O)N[C@@H](Cc1ccc(O)cc1)C(=O)N[C@@H](C(C)C)C(=O)N2 [arenicin-3] (HELM PEPTIDE1{G.F.C.W.Y.V.C.V.Y.R.N.G.V.R.V.C.Y.R.R.C.N}$PEPTIDE1,PEPTIDE1,3:R3-20:R3|PEPTIDE1,PEPTIDE1,7:R3-16:R3$$$V2.0)",0.32,4,64,8,–,0.5,64

# — PMC4906375, “Contribution of Amphipathicity and Hydrophobicity to the Antimicrobial Activity and Cytotoxicity of β-Hairpin Peptides” (ACS Infectious Diseases, 2016)
